Values quoted from earlier work in article PMC3297008, “Novel Marine Phenazines as Potential Cancer Chemopreventive and Anti-Inflammatory Agents” (Marine Drugs, 2012).

System: 5-α-reductase
Parameters: method as in PMID 2503481
Settings: derived from human prostate; cited from earlier work

For `CC1=C(Cn2c3cccc(=O)c-3nc3ccccc32)CCC(C)(C)C1` [Lavanducyanin 3, lavanducyanin], the “inhibition of 5-α-reductase” value is given as “competitively inhibits”.
